Assays:
Assay in all cases: relative viability (nuclei count vs DMSO), 5 days (fraction); higher = more cells survive
[1] = compound: CCn1c(-c2nonc2N)nc2cnc(Oc3cccc(NC(=O)c4ccc(OCCN5CCOCC5)cc4)c3)cc21 + N=C(N)NC(=N)NCCc1ccccc1 [Phenformin] (partner 250 µM)
Method in brief: (§1)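 A single step with final 0.05% Triton X-100, 1% formaldehyde and 1 ug/ml Hoechst fixed the cells and stained nuclei 5 days after treatment. Lung cancer cell lines in 1536-well plates had been treated by pin tool the day after seeding with one drug alone or a fixed anchor-drug dose plus five library-drug doses (not always all listed) in √10 steps, and nuclei were counted on 4× images. Relative viability is the ratio of nuclei in treated wells to nuclei in vehicle wells, taken as the median of duplicate plates.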

[2] = compound: CCn1c(-c2nonc2N)nc2cnc(Oc3cccc(NC(=O)c4ccc(OCCN5CCOCC5)cc4)c3)cc21 + C[C@]1(O)C[C@@H](c2nc(-c3ccc4ccc(-c5ccccc5)nc4c3)c3c(N)nccn32)C1 [Linsitinib] (partner 1 µM)
Method in brief: as §1

[3] = compound: CCC1=CN=CN=C1N2CCN(CC2)CC3=NC4=C(N3)C=C(C=C4)C(F)(F)F + O=C(c1cc(Cc2n[nH]c(=O)c3ccccc23)ccc1F)N1CCN(C(=O)C2CC2)CC1 [Olaparib] (partner 8 µM)
Method in brief: as §1

[4] = compound: CCC1=CN=CN=C1N2CCN(CC2)CC3=NC4=C(N3)C=C(C=C4)C(F)(F)F + Cc1cc(Nc2cc(N3CCN(C)CC3)nc(Sc3ccc(NC(=O)C4CC4)cc3)n2)n[nH]1 [Tozasertib] (partner 0.1 µM)
Method in brief: as §1

Cell Line | relative viability ([1]; first compound 0.04 µM) | relative viability ([1]; first compound 0.1265 µM) | relative viability ([1]; first compound 0.4 µM) | relative viability ([1]; first compound 1.265 µM) | relative viability ([1]; first compound 4 µM) | relative viability ([2]; first compound 0.04 µM) | relative viability ([2]; first compound 0.1265 µM) | relative viability ([2]; first compound 0.4 µM) | relative viability ([2]; first compound 1.265 µM) | relative viability ([2]; first compound 4 µM) | relative viability ([3]; first compound 0.04 µM) | relative viability ([3]; first compound 0.1265 µM) | relative viability ([3]; first compound 0.4 µM) | relative viability ([3]; first compound 1.265 µM) | relative viability ([3]; first compound 4 µM) | relative viability ([4]; first compound 0.04 µM) | relative viability ([4]; first compound 0.1265 µM) | relative viability ([4]; first compound 0.4 µM) | relative viability ([4]; first compound 1.265 µM) | relative viability ([4]; first compound 4 µM)
A549 | 0.303 | 0.151 | 0.0713 | 0.0328 | 0.0406 | 0.726 | 0.662 | 0.733 | 0.178 | 0.319 | 0.318 | 0.179 | 0.333 | 0.333 | 0.387 | – | – | – | – | –
NCI-H1975 | 0.343 | 0.277 | 0.208 | 0.186 | 0.168 | 0.833 | 0.65 | 0.895 | 0.385 | 0.293 | 0.9 | 0.729 | 0.735 | 0.718 | 0.667 | 0.732 | 0.785 | 0.679 | 0.61 | 0.689
Calu-6 | – | – | – | – | – | 0.964 | 0.94 | 0.616 | 0.524 | 0.536 | 0.681 | 0.591 | 0.523 | 0.556 | 0.483 | – | – | – | – | –
NCI-H1648 | – | – | – | – | – | – | – | – | – | – | 0.985 | – | – | 0.558 | 0.673 | 0.538 | 0.429 | – | 0.362 | 0.345
NCI-H1623 | 0.629 | 0.594 | 0.499 | 0.536 | 0.605 | – | – | – | – | – | – | – | – | – | – | 0.368 | 0.422 | 0.38 | 0.423 | 0.425
NCI-H322M | 1.12 | 0.982 | 0.632 | 0.557 | 0.579 | 1.03 | 0.845 | 0.912 | 0.939 | 0.808 | 0.792 | 0.811 | 0.725 | 0.672 | 0.85 | 0.485 | 0.446 | 0.485 | 0.469 | 0.488
NCI-H2405 | 0.379 | 0.236 | 0.0695 | 0.124 | 0.13 | 0.955 | 0.568 | 0.417 | 0.31 | 0.263 | 0.898 | 0.874 | 0.821 | – | 0.919 | 0.779 | 0.759 | 0.741 | – | 0.685
HCC-44 | 0.249 | 0.216 | 0.113 | 0.096 | 0.074 | 0.671 | 0.709 | 0.684 | 0.538 | 0.509 | 1.02 | 0.963 | 0.978 | 0.99 | 0.966 | 0.955 | 0.962 | 0.905 | 0.597 | 1.06
HCC-78 | 0.789 | 0.934 | – | 0.766 | 0.881 | 0.673 | 0.498 | 0.551 | 0.664 | 0.621 | 0.893 | 0.669 | 0.79 | 0.588 | 0.78 | 0.572 | 0.549 | 0.446 | 0.434 | 0.376
COR-L23 | 0.451 | 0.285 | 0.185 | 0.155 | 0.13 | 1 | 0.785 | 0.521 | 0.172 | 0.148 | 0.351 | 0.316 | 0.332 | 0.344 | 0.356 | 0.219 | 0.207 | 0.201 | 0.157 | 0.183
NCI-H2342 | 0.71 | 0.585 | 0.581 | 0.449 | 0.66 | – | – | – | – | – | 0.51 | 0.402 | 0.384 | 0.275 | 0.34 | 0.467 | 0.428 | 0.571 | 0.333 | 0.398
NCI-H1792 | 0.333 | 0.177 | 0.0802 | 0.145 | 0.225 | 0.65 | 0.572 | – | 0.423 | 0.512 | 0.895 | 0.406 | 0.369 | – | 0.399 | – | – | – | – | –
NCI-H1563 | 0.592 | 0.61 | 0.507 | 0.582 | 0.553 | 1.1 | 1.1 | 1.12 | 0.884 | 0.869 | – | – | – | – | – | – | – | – | – | –
NCI-H522 | 0.561 | 0.613 | 0.6 | 0.522 | 0.507 | – | – | – | – | – | 0.601 | 0.613 | 0.573 | 0.526 | 0.558 | 0.59 | 0.591 | 0.467 | 0.518 | 0.499
SW 900 | 0.71 | 0.548 | 0.506 | 0.39 | 0.548 | – | – | – | – | – | 0.928 | 0.764 | 0.863 | – | 0.82 | 0.538 | 0.585 | 0.497 | 0.548 | 0.523
EBC-1 | – | – | – | – | – | 0.852 | 1.09 | 0.78 | 0.79 | 0.876 | 0.691 | 0.644 | 0.688 | 0.675 | 0.699 | – | – | – | – | –
NCI-H1650 | 0.47 | 0.382 | 0.229 | 0.397 | 0.369 | – | – | – | – | – | 0.682 | 0.797 | 0.708 | 0.642 | 0.907 | 0.482 | 0.471 | 0.273 | – | 0.331
IA-LM | – | – | – | – | – | 0.95 | 0.8 | 0.658 | 0.54 | 0.681 | 0.649 | 0.838 | 0.812 | 0.703 | 0.765 | – | – | – | – | –
NCI-H1703 | – | – | – | – | – | 0.709 | 0.838 | 0.436 | 0.464 | 0.294 | 0.511 | 0.536 | 0.397 | 0.332 | 0.396 | – | – | – | – | –
